The target in the experiment is [35S]-TBPS binding, rat brain cortical membranes. Kind of experiment: Steroid inhibition of [35S]-TBPS binding. The following applies: 3 nM [35S]-TBPS, in the presence of 5 mM GABA. The method in brief:
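In the presence of […], compounds (DMSO 0.5% final) competed with 3 nM [35S]-TBPS for Sprague-Dawley rat cortical membranes, pH 7.4 phosphate buffer, 90 min, room temperature. Filtration and scintillation counting; specific binding defined by […]; IC50 and maximal inhibition fitted per experiment, averaged as mean ± SEM.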

As for `C[C@@H](Cn1cc(C#N)cn1)[C@@]1(O)CC[C@H]2[C@@H]3CC[C@@H]4C[C@](C)(O)CC[C@@H]4[C@H]3CC[C@@]21C` [Example 345, 1-((S)-2-((3R,5R,8R,9R,10S,13S,14S,17S)-3,17-dihydroxy-3,13-dimethylhexadecahydro-1H-cyclopenta[a]phenanthren-17-yl)propyl)-1H-pyrazole-4-carbonitrile], the half-maximal inhibitory concentration (IC50) fell in the range of 1000 to 10000 nM.
With `CCC[C@@]1(O)CC[C@H]2[C@H](CC[C@@H]3[C@@H]2CC[C@]2(C)[C@@H]([C@H](C)Cc4ccc(C(F)(F)F)nc4)CC[C@@H]32)C1` [Example 411] the figure was less than 100 nM.
`CCOC[C@@]1(O)CC[C@H]2[C@H](CC[C@@H]3[C@@H]2CC[C@]2(C)[C@@H]([C@@H](CC)Cn4ccc(C#N)n4)CC[C@@H]32)C1` [Example 498, 1-((R)-2-((3R,5R,8R,9R,10S,13S,14S,17R)-3-(ethoxymethyl)-3-hydroxy-13-methylhexadecahydro-1H-cyclopenta[a]phenanthren-17-yl)butyl)-1H-pyrazole-3-carbonitrile]: the IC50 was in the range of 100 to 1000 nM.
Take `CCOC[C@@]1(O)CC[C@@]2(C)[C@H](CC[C@@H]3[C@@H]2CC[C@]2(C)[C@@H]([C@H](CC)Nc4ccc(C#N)nc4)CC[C@@H]32)C1` [Example 494, 5-(((S)-1-((3R,5R,8R,9S,10S,13S,14S,17S)-3-(ethoxymethyl)-3-hydroxy-10,13-dimethylhexadecahydro-1H-cyclopenta[a]phenanthren-17-yl)propyl)amino)picolinonitrile]: the 50% inhibitory concentration (IC50) is 100 to 1000 nM.
Consider `COC[C@@]1(O)CC[C@@]2(C)[C@H](CC[C@@H]3[C@@H]2CC[C@@]2(C)[C@H]3CC[C@]2(O)[C@@H](C)Cn2cc(C#N)cn2)C1` [Example 351, 1-((S)-2-((3R,5R,8R,9S,10S,13S,14S,17S)-3,17-dihydroxy-3-(methoxymethyl)-10,13-dimethylhexadecahydro-1H-cyclopenta[a]phenanthren-17-yl)propyl)-1H-pyrazole-4-carbonitrile], for which the IC50 fell in the range of 1000 to 10000 nM.
With `CC[C@@H](Nc1cccc(C#N)c1)[C@H]1CC[C@H]2[C@@H]3CC[C@@H]4C[C@@](O)(COC)CC[C@@H]4[C@H]3CC[C@]12C` [Example 497, 3-(((R)-1-((3R,5R,8R,9R,10S,13S,14S,17S)-3-hydroxy-3-(methoxymethyl)-13-methylhexadecahydro-1H-cyclopenta[a]phenanthren-17-yl)propyl)amino)benzonitrile] the figure was 100 to 1000 nM; with `CC[C@@]1(O)CC[C@@]2(C)[C@@H](CC[C@@H]3[C@@H]2CC[C@]2(C)[C@@H]([C@H](C)Cn4nnc(C)n4)CC[C@@H]32)C1` [Example 360, (3R,5S,8R,9S,10S,13S,14S,17R)-3-ethyl-10,13-dimethyl-17-((S)-1-(5-methyl-2H-tetrazol-2-yl)propan-2-yl)hexadecahydro-1H-cyclopenta[a]phenanthren-3-ol], 1000 to 10000 nM.
Consider `C[C@H](Cc1ccc(C(F)(F)F)nc1)[C@H]1CC[C@H]2[C@@H]3CC[C@@H]4C[C@](C)(O)CC[C@@H]4[C@H]3CC[C@]12C` [Example 444], for which the IC50 is 100 to 1000 nM.
Consider `COC[C@@]1(O)CC[C@H]2[C@H](CC[C@@H]3[C@@H]2CC[C@]2(C)[C@@H]([C@H](C)NC(=O)c4cc(C)nn4C)CC[C@@H]32)C1` [Example 119], for which the IC50 fell in the range of 1000 to 10000 nM.
With `CCOC[C@@]1(O)CC[C@H]2[C@H](CC[C@@H]3[C@@H]2CC[C@]2(C)[C@@H]([C@@H](C)n4cc(C#N)cn4)CC[C@@H]32)C1` [Example 162, 1-((R)-1-((3R,5R,8R,9R,10S,13S,14S,17S)-3-(ethoxymethyl)-3-hydroxy-13-methylhexadecahydro-1H-cyclopenta[a]phenanthren-17-yl)ethyl)-1H-pyrazole-4-carbonitrile] the figure was 100 to 1000 nM.

What is called IC50 is the concentration at which inhibition is half-maximal.

The record behind these values is patent US20230322846A9, “NEUROACTIVE STEROIDS AND THEIR METHODS OF USE” (SAGE THERAPEUTICS, INC., priority 2018, published 2023).
